{"source": "patent US9006450B2", "about": "(Boehringer Ingelheim International GmbH, priority 2010, dated 2015)", "note": "pIC50: −log10 of the molar value."}
{"molecular_target": "T1, human ACC2 (Homo sapiens, UniProt O00763)", "T1 construct": "made in house; host or cells: insect cells (baculoviral expression system)", "T1 sequence (O00763 129-2458 limits assumed)": "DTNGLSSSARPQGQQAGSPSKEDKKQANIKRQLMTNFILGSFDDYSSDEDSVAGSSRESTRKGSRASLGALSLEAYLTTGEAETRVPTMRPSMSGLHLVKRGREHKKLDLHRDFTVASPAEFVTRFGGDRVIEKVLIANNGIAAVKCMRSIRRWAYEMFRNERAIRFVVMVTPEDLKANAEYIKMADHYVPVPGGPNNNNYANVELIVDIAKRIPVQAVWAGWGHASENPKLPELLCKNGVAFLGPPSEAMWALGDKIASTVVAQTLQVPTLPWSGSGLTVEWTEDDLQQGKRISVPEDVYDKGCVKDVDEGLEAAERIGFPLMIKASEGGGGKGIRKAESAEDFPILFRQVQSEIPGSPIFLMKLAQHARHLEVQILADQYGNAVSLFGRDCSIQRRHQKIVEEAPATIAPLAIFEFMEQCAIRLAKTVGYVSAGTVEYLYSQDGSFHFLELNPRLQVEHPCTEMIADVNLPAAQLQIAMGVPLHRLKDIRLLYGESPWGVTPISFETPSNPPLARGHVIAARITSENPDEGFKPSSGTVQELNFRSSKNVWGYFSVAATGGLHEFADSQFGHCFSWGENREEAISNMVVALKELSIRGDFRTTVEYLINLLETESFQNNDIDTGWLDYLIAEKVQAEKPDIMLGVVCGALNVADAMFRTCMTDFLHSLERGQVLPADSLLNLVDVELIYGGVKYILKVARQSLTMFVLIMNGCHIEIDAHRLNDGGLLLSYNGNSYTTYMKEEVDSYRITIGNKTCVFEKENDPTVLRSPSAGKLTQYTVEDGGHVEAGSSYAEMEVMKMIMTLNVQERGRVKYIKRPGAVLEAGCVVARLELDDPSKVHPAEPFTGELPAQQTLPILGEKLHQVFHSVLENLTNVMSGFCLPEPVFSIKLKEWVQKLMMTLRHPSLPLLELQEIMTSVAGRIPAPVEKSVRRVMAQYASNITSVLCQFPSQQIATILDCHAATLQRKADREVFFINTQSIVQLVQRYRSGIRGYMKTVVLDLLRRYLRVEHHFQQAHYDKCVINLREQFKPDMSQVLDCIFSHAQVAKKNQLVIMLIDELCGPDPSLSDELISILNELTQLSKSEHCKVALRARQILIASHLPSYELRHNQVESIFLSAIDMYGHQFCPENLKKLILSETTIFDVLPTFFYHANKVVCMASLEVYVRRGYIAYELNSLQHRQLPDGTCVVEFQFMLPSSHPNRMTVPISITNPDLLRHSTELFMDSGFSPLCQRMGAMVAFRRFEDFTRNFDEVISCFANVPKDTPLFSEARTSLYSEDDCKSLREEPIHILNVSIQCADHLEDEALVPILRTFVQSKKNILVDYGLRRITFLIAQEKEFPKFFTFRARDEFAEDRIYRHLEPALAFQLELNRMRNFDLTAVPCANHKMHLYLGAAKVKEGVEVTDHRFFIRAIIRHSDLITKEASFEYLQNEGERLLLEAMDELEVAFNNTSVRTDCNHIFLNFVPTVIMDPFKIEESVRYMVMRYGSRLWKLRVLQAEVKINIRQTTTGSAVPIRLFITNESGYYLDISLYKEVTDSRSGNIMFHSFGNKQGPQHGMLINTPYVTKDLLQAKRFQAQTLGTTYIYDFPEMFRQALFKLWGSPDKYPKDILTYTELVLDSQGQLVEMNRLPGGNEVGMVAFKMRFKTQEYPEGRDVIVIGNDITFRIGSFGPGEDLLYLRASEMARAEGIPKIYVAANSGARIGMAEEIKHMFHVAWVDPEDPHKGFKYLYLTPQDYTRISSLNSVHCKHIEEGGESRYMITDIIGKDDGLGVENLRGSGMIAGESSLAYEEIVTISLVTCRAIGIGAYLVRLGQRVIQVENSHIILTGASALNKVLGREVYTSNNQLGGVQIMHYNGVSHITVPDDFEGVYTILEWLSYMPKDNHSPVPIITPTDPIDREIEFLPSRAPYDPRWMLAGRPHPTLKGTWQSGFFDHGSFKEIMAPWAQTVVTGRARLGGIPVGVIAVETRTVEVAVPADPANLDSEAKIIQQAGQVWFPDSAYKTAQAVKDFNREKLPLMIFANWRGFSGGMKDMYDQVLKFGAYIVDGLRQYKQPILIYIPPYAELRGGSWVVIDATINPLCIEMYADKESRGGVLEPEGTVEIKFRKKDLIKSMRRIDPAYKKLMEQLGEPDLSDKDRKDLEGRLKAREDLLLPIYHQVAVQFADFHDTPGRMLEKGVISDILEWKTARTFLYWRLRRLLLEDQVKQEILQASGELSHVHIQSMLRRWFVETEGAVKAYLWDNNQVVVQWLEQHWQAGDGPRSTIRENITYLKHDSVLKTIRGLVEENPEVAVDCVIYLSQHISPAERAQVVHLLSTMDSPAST", "assay": "ACC2 assay, spectrophotometric 384 well assay (NADH-linked, coupled lactate dehydrogenase/pyruvate kinase)", "type": "biochemical", "details": "ACC2 assay, hACC2 construct lacking 128 N-terminal amino acids, 25° C., 340 nm; read-out: IC50", "how_it_was_run": "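Human ACC2 lacking N-terminal 128 aa, baculovirus/insect-cell expressed, anion-exchange purified; 100 mM Tris pH 7.5, 10 mM citrate, 25 mM KHCO3, 1% DMSO. Started with 200 μM NADH and acetyl-CoA plus 500 μM ATP; PK/LDH-coupled A340 decrease read 15 min at 25° C. IC50 by nonlinear fit of low-control-subtracted slopes.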"}
{"compound": "CC(=O)N[C@@H](C)c1ccc(C2CCN(c3ccnc(OCc4ccncc4)c3)CC2)cc1", "note": "[Example 19.38]", "pIC50": 5.92}
{"compound": "CC(C)Oc1cc(N2CCC(c3ccc([C@H](C)NC(=O)C4CC4)cc3)CC2)ncn1", "note": "[Example 20.1, (S)-Cyclopropanecarboxylic acid (1-{4-[1-(6-isopropoxy-pyrimidin-4-yl)-piperidin-4-yl]-phenyl}-ethyl)-amide]", "pIC50": 6.22}
{"compound": "C[C@H](NC(=O)C1CC1)c1ccc(C2CCN(c3cc(OC4CCC4)ncn3)CC2)cc1", "note": "[Example 20.2]", "pIC50": 6.66}
{"compound": "CC(C)Oc1cc(N2CCC(c3ccc([C@H](C)NC(=O)N(C)C)cc3)CC2)ncn1", "note": "[Example 20.3]", "pIC50": 6.74}
{"compound": "C[C@H](NC(=O)N(C)C)c1ccc(C2CCN(c3cc(OC4CCC4)ncn3)CC2)cc1", "note": "[Example 20.4]", "pIC50": 6.72}
{"compound": "COc1nc(N2CCC(c3ccc([C@H](C)NC(C)=O)cc3)CC2)ncc1-c1ccccc1", "note": "[Example 21.1, (S)—N-(1-{4-[1-(4-Methoxy-5-phenyl-pyrimidin-2-yl)-piperidin-4-yl]-phenyl}-ethyl)-acetamide]", "pIC50": 6.59}
{"compound": "CC(=O)N[C@@H](C)c1ccc(C2CCN(c3ncc(-c4ccccc4)c(C)n3)CC2)cc1", "note": "[Example 21.2, (S)—N-(1-{4-[1-(4-Methyl-5-phenyl-pyrimidin-2-yl)-piperidin-4-yl]-phenyl}-ethyl)-acetamide]", "pIC50": 6.82}
{"compound": "CNc1nc(N2CCC(c3ccc([C@H](C)NC(C)=O)cc3)CC2)ncc1-c1ccccc1", "note": "[Example 21.3, (S)—N-(1-{4-[1-(4-Methylamino-5-phenyl-pyrimidin-2-yl)-piperidin-4-yl]-phenyl}-ethyl)-acetamide]", "pIC50": 6.49}
{"compound": "CC(=O)N[C@@H](C)c1ccc(C2CCN(c3ccnc(-c4ccc5c(c4)OCO5)n3)CC2)cc1", "note": "[Example 22.1, (S)—N-(1-{4-[1-(2-Benzo[1,3]dioxol-5-yl-pyrimidin-4-yl)-piperidin-4-yl]-phenyl}-ethyl)-acetamide]", "pIC50": 5.96}
{"compound": "CC(=O)N[C@@H](C)c1ccc(C2CCN(c3cc(-c4ccc5c(c4)OCO5)ncn3)CC2)cc1", "note": "[Example 22.2]", "pIC50": 5.60}
{"compound": "CC(=O)N[C@@H](C)c1ccc(C2CCN(c3nccc(-c4ccc5c(c4)OCO5)n3)CC2)cc1", "note": "[Example 22.3]", "pIC50": 6.00}
{"compound": "CCOc1cccc(-c2nccc(N3CCC(c4ccc([C@H](C)NC(C)=O)cc4)CC3)n2)c1", "note": "[Example 22.4]", "pIC50": 6.41}
{"compound": "CC(=O)N[C@@H](C)c1ccc(C2CCN(c3ccnc(-c4ccc(C#N)s4)n3)CC2)cc1", "note": "[Example 22.5]", "pIC50": 6.03}
{"compound": "CCOc1ccc(-c2nccc(N3CCC(c4ccc([C@H](C)NC(C)=O)cc4)CC3)n2)cc1", "note": "[Example 22.6]", "pIC50": 5.92}
{"compound": "CCOc1cccc(-c2cc(N3CCC(c4ccc([C@H](C)NC(C)=O)cc4)CC3)ncn2)c1", "note": "[Example 22.7]", "pIC50": 5.39}
{"compound": "CC(=O)N[C@@H](C)c1ccc(C2CCN(c3cc(-c4ccc(C#N)s4)ncn3)CC2)cc1", "note": "[Example 22.8]", "pIC50": 5.54}
{"compound": "CCOc1ccc(-c2cc(N3CCC(c4ccc([C@H](C)NC(C)=O)cc4)CC3)ncn2)cc1", "note": "[Example 22.9]", "pIC50": 5.51}
{"compound": "CCOc1cccc(-c2ccnc(N3CCC(c4ccc([C@H](C)NC(C)=O)cc4)CC3)n2)c1", "note": "[Example 22.10]", "pIC50": 6.62}
{"compound": "CC(=O)N[C@@H](C)c1ccc(C2CCN(c3nccc(-c4ccc(C#N)s4)n3)CC2)cc1", "note": "[Example 22.11]", "pIC50": 6.41}
{"compound": "CCOc1ccc(-c2ccnc(N3CCC(c4ccc([C@H](C)NC(C)=O)cc4)CC3)n2)cc1", "note": "[Example 22.12]", "pIC50": 5.48}
{"compound": "CC(=O)N[C@@H](C)c1ccc(C2CCN(c3cc(-c4ccc5[nH]ccc5c4)ncn3)CC2)cc1", "note": "[Example 22.13]", "pIC50": 6.36}
{"compound": "CC(=O)N[C@@H](C)c1ccc(C2CCN(c3ncc(-c4nc5ccccc5[nH]4)cn3)CC2)cc1", "note": "[Example 23.1, (S)—N-[1-(4-{1-[5-(1H-Benzoimidazol-2-yl)-pyrimidin-2-yl]-piperidin-4-yl}-phenyl)-ethyl]-acetamide]", "pIC50": 6.54}
{"compound": "CCCNc1ccc(N2CCC(c3ccc([C@H](C)NC(C)=O)cc3)CC2)cc1", "note": "[Example 24.1, (S)—N-(1-{4-[1-(4-(Propylamino)phenyl)-piperidin-4-yl]-phenyl}-ethyl)-acetamide]", "pIC50": 6.00}
{"compound": "CCNc1ccc(N2CCC(c3ccc([C@H](C)NC(C)=O)cc3)CC2)cc1", "note": "[Example 24.2]", "pIC50": 5.72}
{"compound": "CC(=O)N[C@@H](C)c1ccc(C2CCN(c3ccc(NCC(C)C)cc3)CC2)cc1", "note": "[Example 24.3]", "pIC50": 5.96}
{"compound": "CC(=O)N[C@@H](C)c1ccc(C2CCN(c3ccc(NCC4CC4)cc3)CC2)cc1", "note": "[Example 24.4]", "pIC50": 5.89}
{"compound": "CC(=O)N[C@@H](C)c1ccc(C2CCN(c3nc(C(C)C)no3)CC2)cc1", "note": "[Example 25.1, (S)—N-(1-{4-[1-(3-Isopropyl-[1,2,4]oxadiazol-5-yl)-piperidin-4-yl]-phenyl}-ethyl)-acetamide]", "pIC50": 5.57}
{"compound": "CCc1noc(N2CCC(c3ccc([C@H](C)NC(C)=O)cc3)CC2)n1", "note": "[Example 25.2]", "pIC50": 4.99}
{"compound": "CC(=O)N[C@@H](C)c1ccc(C2CCN(c3nc(-c4ccccc4)no3)CC2)cc1", "note": "[Example 25.3]", "pIC50": 6.02}
{"compound": "CC(=O)N[C@@H](C)c1ccc(C2CCN(c3noc(-c4ccccc4)n3)CC2)cc1", "note": "[Example 26.1, (S)—N-(1-{4-[1-(5-Phenyl-[1,2,4]oxadiazol-3-yl)-piperidin-4-yl]-phenyl}-ethyl)-acetamide]", "pIC50": 5.72}
{"compound": "CCc1nc(N2CCC(c3ccc([C@H](C)NC(C)=O)cc3)CC2)no1", "note": "[Example 26.2]", "pIC50": 5.39}
{"compound": "CC(=O)N[C@@H](C)c1ccc(C2CCN(c3noc(C(C)C)n3)CC2)cc1", "note": "[Example 26.3]", "pIC50": 6.15}
{"compound": "COCc1nc(N2CCC(c3ccc([C@H](C)NC(C)=O)cc3)CC2)no1", "note": "[Example 26.4]", "pIC50": 5.04}
{"compound": "CC(=O)N[C@@H](C)c1ccc(C2CCN(c3ccc(OCC4CC4C)cc3)CC2)cc1", "note": "(stereo partly drawn) [Example 27.1, N-((1S)-1-(4-(1-(4-((2-methylcyclopropyl)methoxy)phenyl)-piperidin-4-yl)phenyl)-ethyl)acetamide]", "pIC50": 6.82}
{"compound": "CC(=O)N[C@@H](C)c1ccc(C2CCN(c3ccc(OCC4(CC#N)CC4)cc3)CC2)cc1", "note": "[Example 27.3]", "pIC50": 6.07}
{"compound": "CC(=O)N[C@@H](C)c1ccc(C2CCN(c3cccc(C(=O)O)c3)CC2)cc1", "note": "[Example 28.1, (S)-3-(4-(4-(1-Acetamidoethyl)phenyl)piperidin-1-yl)benzoic acid]", "pIC50": 5.03}
{"compound": "CC(=O)N[C@@H](C)c1ccc(C2CCN(c3cccc(C(=O)N4CCc5ccccc5C4)c3)CC2)cc1", "note": "[Example 29.1, (S)—N-(1-(4-(1-(3-(1,2,3,4-Tetrahydroisoquinoline-2-carbonyl)phenyl)piperidin-4-yl)phenyl)ethyl)acetamide]", "pIC50": 5.80}
{"compound": "CC(=O)N[C@@H](C)c1ccc(C2CCN(c3cccc(C(=O)N4Cc5ccccc5C4)c3)CC2)cc1", "note": "[Example 29.2]", "pIC50": 5.77}
{"compound": "CCNC(=O)c1cccc(N2CCC(c3ccc([C@H](C)NC(C)=O)cc3)CC2)c1", "note": "[Example 29.3]", "pIC50": 5.17}
{"compound": "CCOc1ccc(N2CCC(c3ccc([C@H](C)NC(=O)CC(C)=O)cc3)CC2)cc1", "note": "[Example 30.1]", "pIC50": 5.57}
{"compound": "CCOc1ccc(N2CCC(c3ccc([C@H](C)NC(=O)CC(=O)OC)cc3)CC2)cc1", "note": "[Example 31.1, (S)-Methyl 3-(1-(4-(1-(4-Ethoxyphenyl)piperidin-4-yl)phenyl)ethylamino)-3-oxopropanoate]", "pIC50": 5.80}
